Experiment [1] addresses T1, β-lactamase (cephalosporinase type) of Enterobacter cloacae 92 (Enterobacter cloacae, UniProt P05364).
T1 construct: supernatant of sonicated, washed cells of the producing strain (crude cell-free extract)
Nature of the experiment: β-lactamase inhibitory activity, inhibition of hydrolysis of the substrate. It is filed as biochemical. As to conditions: β-lactamase of Enterobacter cloacae 92, cephalosporinase type; pH 7.0, 10 min preincubation, read after 20 min. The source says: (§1) (2) Test on the β-lactamase inhibitory activity:
(§2) The β-lactamase inhibitory activity is expressed as a minimum concentration (μg/ml) of the test compound which is required to inhibit the hydrolysis of the substrate by β-lactamase. The supernatant, which has been obtained by means of breaking the washed cells of the β-lactamase-producing microorganisms in a buffer with ultrasonic waves and then centrifuging the consequent cell-free extract, is employed as a standard β-lactamase.
(§3) A test compound is successively diluted with a buffer (pH 7.0) by a two-fold dilution method, the standard β-lactamase in added to each of the diluted solutions, then the mixture is allowed to stand for 10 minutes, and an indicator is added therein. The minimum inhibitory concentration at which no color is developed after observation for 20 minutes, is determined.
*^1 Producing cephalosporinasetype lactamase

In experiment [2] the test system is β-lactamase (penicillinase type) of Klebsiella sp. 363. The description is as above. As to conditions: β-lactamase of Klebsiella sp. 363, penicillinase type; pH 7.0, 10 min preincubation, read after 20 min. It is filed as biochemical.
Text: as §1, §2, §3
*^2 Producing penicillinasetype lactamase

The test system of experiment [3] is Gram-positive and Gram-negative microorganisms. Nature of the experiment: Antimicrobial activity (general statement). It is filed as cell-based. The settings on record: statement in words. The source says: (§4) Results of the tests on the antimicrobial activities and β-lactamase inhibitory activities are summarized as follows.
The subject of the next experiment is β-lactamase. Nature of the experiment: β-lactamase inhibitory activity (general statement). It is filed as biochemical. The settings on record: statement in words.
Text: as §4, §2, §3

In the next experiment the test system is Enterobacter cloacae 233. Nature of the experiment: Antimicrobial activity, agar dilution method. It is filed as cell-based. The settings on record: inoculum 10^6 cells/ml, sensitivity disc agar, 37° C. overnight, read-out: Minimum Inhibitory Concentration. How it is done: (§5) (1) Antimicrobial Activity:
(§6) Test microorganism Concentration (μg/ml)
(§7) Determined by agar dilution method: Inoculum size 10^6 cells/ml,
(§8) Cultivation on a sensitivitydisc agar medium at 37° C. overnight.
Background: In agar dilution the substance is mixed into plates at graded concentrations.

In experiment [4] the test system is Escherichia coli NIHJ JC-2. Briefly: Antimicrobial activity, agar dilution method. In kind it is cell-based. The settings on record: NIHJJC2, inoculum 10^6 cells/ml, sensitivity disc agar, 37° C. overnight, read-out: Minimum Inhibitory Concentration. The protocol: as §5, §6, §7, §8
The test system of experiment [5] is Klebsiella pneumoniae SRL-1. Nature of the experiment: Antimicrobial activity, agar dilution method. It is filed as cell-based. The settings on record: SRL1, inoculum 10^6 cells/ml, sensitivity disc agar, 37° C. overnight, read-out: Minimum Inhibitory Concentration. The protocol:
as §5, §6, §7, §8

The test system of a further experiment is Klebsiella sp. 363(R). Nature of the experiment: Antimicrobial activity, agar dilution method. The settings on record: inoculum 10^6 cells/ml, sensitivity disc agar, 37° C. overnight, read-out: Minimum Inhibitory Concentration. In kind it is cell-based. How it is done:
as §5, §6, §7, §8

Another experiment concerns Proteus mirabilis PR-4. Nature of the experiment: Antimicrobial activity, agar dilution method. In kind it is cell-based. The settings on record: PR4, inoculum 10^6 cells/ml, sensitivity disc agar, 37° C. overnight, read-out: Minimum Inhibitory Concentration. How it is done: as §5, §6, §7, §8
The test system of experiment [6] is Pseudomonas aeruginosa ATCC 25619. Briefly: Antimicrobial activity, agar dilution method. In kind it is cell-based. As to conditions: ATCC25619, inoculum 10^6 cells/ml, sensitivity disc agar, 37° C. overnight, read-out: Minimum Inhibitory Concentration. The protocol:
as §5, §6, §7, §8

The test system of experiment [7] is Staphylococcus aureus 209P JC-1. Nature of the experiment: Antimicrobial activity, agar dilution method. As to conditions: inoculum 10^6 cells/ml, sensitivity disc agar, 37° C. overnight, read-out: Minimum Inhibitory Concentration. In kind it is cell-based. How it is done: as §5, §6, §7, §8
Experiment [8] concerns Streptococcus pneumoniae I. Nature of the experiment: Antimicrobial activity, agar dilution method. It is filed as cell-based. As to conditions: inoculum 10^6 cells/ml, sensitivity disc agar, 37° C. overnight, read-out: Minimum Inhibitory Concentration. The protocol:
as §5, §6, §7, §8

In brackets after ≈: the same amount, converted by molar mass.

T1 sequence (P05364 21-381): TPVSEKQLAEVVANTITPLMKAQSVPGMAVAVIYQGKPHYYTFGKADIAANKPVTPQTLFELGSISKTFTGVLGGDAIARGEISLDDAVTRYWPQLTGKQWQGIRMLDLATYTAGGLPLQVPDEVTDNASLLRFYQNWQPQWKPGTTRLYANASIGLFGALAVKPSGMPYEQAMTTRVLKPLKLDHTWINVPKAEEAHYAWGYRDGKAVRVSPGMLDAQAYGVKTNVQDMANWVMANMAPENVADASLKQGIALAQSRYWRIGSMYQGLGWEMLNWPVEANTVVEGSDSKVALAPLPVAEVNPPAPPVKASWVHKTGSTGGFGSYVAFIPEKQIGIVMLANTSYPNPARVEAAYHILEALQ

In the case of `CC(=O)NCC[S@@+]([O-])C1=C(C(=O)O)N2C(=O)[C@@H]([C@H](C)OS(=O)(=O)O)[C@H]2C1` [PA-41746-F], the “Minimum Inhibitory Concentration (inhibition of substrate hydrolysis by β-lactamase)” value (“Minimum Inhibitory Concentration” below) in experiment [1] and in experiment [2] was 0.002 µg/mL throughout. In addition, the antimicrobial activities result in [3] is “antimicrobial activities against Gram-positive and Gram-negative microorganisms”. Further, the β-lactamase inhibitory activities result with β-lactamase is “excellent β-lactamase inhibitory activities”.
In the case of `C[C@H](OS(=O)(=O)O)[C@@H]1C(=O)N2C(C(=O)O)=C(S(=O)O)C[C@H]12` [PA-41746-A2], the MIC with Enterobacter cloacae 233 is 6.25 mg/L (≈ 18.3 µM); in experiment [4] it was 1.56 mg/L (≈ 4.57 µM); in experiment [5], 1.56 mg/L (≈ 4.57 µM); in the experiment with Klebsiella sp. 363(R), 1.56 mg/L (≈ 4.57 µM); in the experiment on Proteus mirabilis PR-4, 3.13 mg/L (≈ 9.17 µM); in experiment [6], > 100 mg/L. The MIC in [7] was 12.5 mg/L (≈ 36.6 µM); in [8] it was 1.56 mg/L (≈ 4.57 µM). Moreover, the “Minimum Inhibitory Concentration” value in experiment [1] turned out to be 0.008 µg/mL; in [2], 1.0 µg/mL. The antimicrobial activities entry in [3] is “antimicrobial activities against Gram-positive and Gram-negative microorganisms”. Moreover, the β-lactamase inhibitory activities entry in the experiment with β-lactamase is recorded as “excellent β-lactamase inhibitory activities”.
With `C[C@H](OS(=O)(=O)O)[C@@H]1C(=O)N2C(C(=O)O)=C([S@+]([O-])CCO)C[C@H]12` [PA-41746-E], the “Minimum Inhibitory Concentration” value turned out to be 0.016 µg/mL in experiment [1] and 0.008 µg/mL in experiment [2]. In [3], the antimicrobial activities entry is “antimicrobial activities against Gram-positive and Gram-negative microorganisms”. In addition, in the experiment with β-lactamase, the β-lactamase inhibitory activities result is given as “excellent β-lactamase inhibitory activities”.

Values taken from patent US4647408A, “Carbapenem-type antibiotics” (Shionogi & Co., Ltd., priority 1983, dated 1987).
